IC50 and inhibition data for two compounds are collected here from ChEMBL document CHEMBL4387741, “Optimization of novel reversible Bruton's tyrosine kinase inhibitors identified using Tethering-fragment-based screens” (Bioorg Med Chem, 2019).

Assay [1] has as its target Tyrosine-protein kinase BTK (Homo sapiens, UniProt Q06187). As to the kind of experiment: Inhibition of BTK in human PBMC assessed as reduction in CD69 expression.
Assay [2] deals with Atypical kinase COQ8A, mitochondrial (Homo sapiens) (UniProt Q8NI60). As to the kind of experiment: Inhibition of wild-type human […] ADCK3 (M280 to Q647 residues) expressed in bacterial expression system at 1 uM by Kinomescan method relative to control.
Assay [3] concerns the target Calcium/calmodulin-dependent protein kinase type II subunit alpha (Homo sapiens) (UniProt Q9UQM7). The experiment in a line: Inhibition of wild-type human partial length CAMK2A (M1 to K328 residues) expressed in bacterial expression system at 1 uM by Kinomescan method relative to control.
Assay [4] has as its target Cyclin-dependent kinase 4 (Homo sapiens) (UniProt P11802). As to the kind of experiment: Inhibition of wild-type human full length CDK4 (M1 to E303 residues) expressed in mammalian expression system at 1 uM by Kinomescan method relative to control.
Assay [5] concerns Epidermal growth factor receptor (Homo sapiens), P00533 [UNDEFINED MUTATION]. As to the kind of experiment: Inhibition of human partial length EGFR L747-S752del/P753S mutant expressed in bacterial expression system at 1 uM by Kinomescan method relative to control.
The target in assay [6] is Ephrin type-A receptor 3 (Homo sapiens) (UniProt P29320). As to the kind of experiment: Inhibition of wild-type human partial length EPHA3 (D604 to K889 residues) expressed in bacterial expression system at 1 uM by Kinomescan method relative to control.
The target in assay [7] is Receptor tyrosine-protein kinase erbB-3 (Homo sapiens) (UniProt P21860). The experiment in a line: Inhibition of wild-type human partial length ERBB3 (G684 to A987 residues) expressed in mammalian expression system at 1 uM by Kinomescan method relative to control.
Receptor tyrosine-protein kinase erbB-3 (Homo sapiens), sequence (P21860 whole entry, the tested form may be a part): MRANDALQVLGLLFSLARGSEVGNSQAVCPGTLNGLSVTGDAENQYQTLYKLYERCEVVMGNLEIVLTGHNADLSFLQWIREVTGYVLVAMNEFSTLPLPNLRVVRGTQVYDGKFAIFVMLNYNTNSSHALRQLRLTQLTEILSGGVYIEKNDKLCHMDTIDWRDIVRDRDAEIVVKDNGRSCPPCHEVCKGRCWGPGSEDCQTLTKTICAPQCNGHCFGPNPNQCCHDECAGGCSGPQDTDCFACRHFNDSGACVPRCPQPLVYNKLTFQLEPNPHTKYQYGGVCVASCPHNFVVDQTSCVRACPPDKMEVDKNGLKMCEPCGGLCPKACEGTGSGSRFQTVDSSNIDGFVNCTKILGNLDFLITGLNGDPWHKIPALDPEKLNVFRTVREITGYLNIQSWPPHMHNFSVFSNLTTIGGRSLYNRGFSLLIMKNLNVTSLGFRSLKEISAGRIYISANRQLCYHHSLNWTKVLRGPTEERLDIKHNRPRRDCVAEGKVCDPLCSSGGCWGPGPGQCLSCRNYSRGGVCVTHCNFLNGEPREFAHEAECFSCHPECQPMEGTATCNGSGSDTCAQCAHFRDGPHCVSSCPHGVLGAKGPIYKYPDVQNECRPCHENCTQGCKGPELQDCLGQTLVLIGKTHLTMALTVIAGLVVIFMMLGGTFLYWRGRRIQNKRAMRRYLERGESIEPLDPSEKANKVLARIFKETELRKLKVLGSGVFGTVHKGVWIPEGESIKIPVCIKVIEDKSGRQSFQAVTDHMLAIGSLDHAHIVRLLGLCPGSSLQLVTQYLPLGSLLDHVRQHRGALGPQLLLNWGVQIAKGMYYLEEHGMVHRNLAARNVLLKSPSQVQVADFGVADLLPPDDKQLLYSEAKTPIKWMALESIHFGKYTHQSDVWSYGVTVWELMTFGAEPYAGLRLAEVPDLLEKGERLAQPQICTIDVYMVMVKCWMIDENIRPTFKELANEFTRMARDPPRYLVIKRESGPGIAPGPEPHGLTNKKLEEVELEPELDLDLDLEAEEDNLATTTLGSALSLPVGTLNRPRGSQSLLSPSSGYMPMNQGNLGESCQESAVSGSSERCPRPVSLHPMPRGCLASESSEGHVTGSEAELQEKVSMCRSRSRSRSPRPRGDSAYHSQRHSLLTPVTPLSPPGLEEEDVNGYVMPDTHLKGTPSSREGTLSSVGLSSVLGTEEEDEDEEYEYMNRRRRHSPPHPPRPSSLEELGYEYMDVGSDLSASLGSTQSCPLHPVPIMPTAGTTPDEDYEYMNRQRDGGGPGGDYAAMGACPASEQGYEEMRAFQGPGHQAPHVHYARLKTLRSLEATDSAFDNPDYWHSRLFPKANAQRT
Assay [8] concerns the target Homeodomain-interacting protein kinase 3 (Homo sapiens) (UniProt Q9H422). The experiment in a line: Inhibition of wild-type human partial length HIPK3 (M153 to N562 residues) expressed in mammalian expression system at 1 uM by Kinomescan method relative to control.
Assay [9] addresses Insulin-like growth factor 1 receptor (Homo sapiens) (UniProt P08069). As to the kind of experiment: Inhibition of wild-type human partial length IGF1R (L972 to D1294 residues) expressed in bacterial expression system at 1 uM by Kinomescan method relative to control.
The target of assay [10] is Dual specificity mitogen-activated protein kinase kinase 6 (Homo sapiens) (UniProt P52564). The experiment in a line: Inhibition of wild-type human partial length MEK6 (K36 to D334 residues) expressed in bacterial expression system at 1 uM by Kinomescan method relative to control.
Dual specificity mitogen-activated protein kinase kinase 6 (Homo sapiens), sequence (P52564 whole entry, the tested form may be a part): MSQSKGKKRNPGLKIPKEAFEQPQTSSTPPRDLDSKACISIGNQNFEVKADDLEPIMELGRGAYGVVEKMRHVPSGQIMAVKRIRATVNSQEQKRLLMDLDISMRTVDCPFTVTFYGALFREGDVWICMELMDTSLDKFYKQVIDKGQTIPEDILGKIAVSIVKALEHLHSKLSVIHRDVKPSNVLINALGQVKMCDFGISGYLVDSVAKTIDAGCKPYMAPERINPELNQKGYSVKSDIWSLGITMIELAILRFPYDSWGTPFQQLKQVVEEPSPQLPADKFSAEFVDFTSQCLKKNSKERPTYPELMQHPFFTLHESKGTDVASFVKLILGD
The test system of assay [11] is Hepatocyte growth factor receptor (Homo sapiens), P08581 [Y1235D]. As to the kind of experiment: Inhibition of human partial length MET Y1235D mutant (D1010 to S1367 residues) expressed in bacterial expression system at 1 uM by Kinomescan method relative to control.
In assay [12] the target is Phosphatidylinositol 3-kinase C2 domain-containing subunit gamma (Homo sapiens) (UniProt O75747). As to the kind of experiment: Inhibition of wild-type human partial length PIK3C2G (M1 to I1446 residues) expressed in mammalian expression system at 1 uM by Kinomescan method relative to control.
Assay [13] concerns the target Protein kinase C theta type (Homo sapiens) (UniProt Q04759). As to the kind of experiment: Inhibition of wild-type human partial length PRKCQ (L350 to S706 residues) expressed in bacterial expression system at 1 uM by Kinomescan method relative to control.
The target in assay [14] is Serine/threonine-protein kinase RIO1 (Homo sapiens) (UniProt Q9BRS2). The experiment in a line: Inhibition of wild-type human full length RIOK1 (M1 to K568 residues) expressed in bacterial expression system at 1 uM by Kinomescan method relative to control.
The target of assay [15] is Proto-oncogene tyrosine-protein kinase Src (Homo sapiens) (UniProt P12931). The experiment in a line: Inhibition of wild-type human partial length SRC (L240 to L536 residues) expressed in bacterial expression system at 1 uM by Kinomescan method relative to control.
Assay [16] concerns the target RAC-gamma serine/threonine-protein kinase (Homo sapiens) (UniProt Q9Y243). As to the kind of experiment: Inhibition of wild-type human partial length AKT3 expressed in bacterial expression system at 10 uM by Kinomescan method relative to control.
The target of assay [17] is Calcium/calmodulin-dependent protein kinase kinase 2 (Homo sapiens) (UniProt Q96RR4). The experiment in a line: Inhibition of wild-type human partial length CAMKK2 (D65 to V471 residues) expressed in bacterial expression system at 10 uM by Kinomescan method relative to control.
For assay [18], the target named is Cyclin-dependent kinase 5 (Homo sapiens) (UniProt Q00535). The experiment in a line: Inhibition of wild-type human full length CDK5 (M1 to P292 residues) expressed in bacterial expression system at 10 uM by Kinomescan method relative to control.
Cyclin-dependent kinase 5 (Homo sapiens), sequence (Q00535 whole entry, looked up, the tested form may be a part): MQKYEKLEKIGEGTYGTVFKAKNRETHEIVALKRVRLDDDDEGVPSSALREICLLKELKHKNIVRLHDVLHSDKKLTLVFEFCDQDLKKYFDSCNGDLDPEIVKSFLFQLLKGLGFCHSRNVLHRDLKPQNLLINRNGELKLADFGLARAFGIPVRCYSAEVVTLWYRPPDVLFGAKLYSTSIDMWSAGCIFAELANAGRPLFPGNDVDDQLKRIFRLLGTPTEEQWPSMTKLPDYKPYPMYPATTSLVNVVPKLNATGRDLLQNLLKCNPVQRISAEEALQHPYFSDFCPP
The target of assay [19] is Serine/threonine-protein kinase LATS2 (Homo sapiens) (UniProt Q9NRM7). The experiment in a line: Inhibition of wild-type human partial length LATS2 (Q641 to V1088 residues) expressed in mammalian expression system at 10 uM by Kinomescan method relative to control.
The target in assay [20] is 3-phosphoinositide-dependent protein kinase 1 (Homo sapiens) (UniProt O15530). As to the kind of experiment: Inhibition of wild-type human full length PDPK1 (M1 to Q556 residues) expressed in bacterial expression system at 10 uM by Kinomescan method relative to control.
The target of assay [21] is Calcium-dependent protein kinase 1 (Plasmodium falciparum) (UniProt P62344). As to the kind of experiment: Inhibition of wild-type Plasmodium falciparum full length CDPK1 (M1 to S524 residues) expressed in mammalian expression system at 10 uM by Kinomescan method relative to control.
For assay [22], the target named is Phosphorylase b kinase gamma catalytic chain, liver/testis isoform (Homo sapiens) (UniProt P15735). As to the kind of experiment: Inhibition of wild-type human partial length PHKG2 (M1 to W300 residues) expressed in bacterial expression system at 10 uM by Kinomescan method relative to control.
Assay [23] concerns the target Phosphatidylinositol 4-kinase beta (Homo sapiens) (UniProt Q9UBF8). As to the kind of experiment: Inhibition of wild-type human full length PIK4CB (M1 to M828 residues) expressed in mammalian expression system at 10 uM by Kinomescan method relative to control.
Assay [24] deals with cGMP-dependent protein kinase 2 (Homo sapiens) (UniProt Q13237). As to the kind of experiment: Inhibition of wild-type human partial length PRKG2 (S422 to F762 residues) expressed in mammalian expression system at 10 uM by Kinomescan method relative to control.
cGMP-dependent protein kinase 2 (Homo sapiens), sequence (Q13237 whole entry, the tested form may be a part): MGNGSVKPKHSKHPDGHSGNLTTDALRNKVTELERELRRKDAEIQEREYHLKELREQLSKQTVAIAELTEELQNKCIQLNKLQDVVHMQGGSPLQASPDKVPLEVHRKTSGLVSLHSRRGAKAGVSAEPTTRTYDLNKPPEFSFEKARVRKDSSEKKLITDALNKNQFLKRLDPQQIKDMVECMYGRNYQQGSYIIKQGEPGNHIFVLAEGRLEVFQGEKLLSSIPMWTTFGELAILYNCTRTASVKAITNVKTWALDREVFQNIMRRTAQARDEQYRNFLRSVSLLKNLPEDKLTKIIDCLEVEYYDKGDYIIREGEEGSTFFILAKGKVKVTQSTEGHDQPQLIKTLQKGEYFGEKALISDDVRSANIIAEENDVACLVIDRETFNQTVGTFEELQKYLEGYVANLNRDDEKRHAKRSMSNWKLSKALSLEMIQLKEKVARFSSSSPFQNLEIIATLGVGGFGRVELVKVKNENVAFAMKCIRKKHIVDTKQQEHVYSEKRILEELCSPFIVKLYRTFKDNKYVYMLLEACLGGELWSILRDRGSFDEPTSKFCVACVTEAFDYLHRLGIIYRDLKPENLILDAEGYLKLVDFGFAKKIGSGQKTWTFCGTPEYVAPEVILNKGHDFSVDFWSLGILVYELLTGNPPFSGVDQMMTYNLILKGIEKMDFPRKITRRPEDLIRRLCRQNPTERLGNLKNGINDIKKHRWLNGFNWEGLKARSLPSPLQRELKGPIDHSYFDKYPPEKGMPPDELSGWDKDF
Assay [25] deals with Dual serine/threonine and tyrosine protein kinase (Homo sapiens) (UniProt Q6XUX3). The experiment in a line: Inhibition of wild-type human full length RIPK5 (M1 to T929 residues) expressed in mammalian expression system at 10 uM by Kinomescan method relative to control.
Assay [26] concerns the target Tyrosine-protein kinase receptor TYRO3 (Homo sapiens) (UniProt Q06418). The experiment in a line: Inhibition of wild-type human partial length TYRO3 (S497 to T814 residues) expressed in bacterial expression system at 10 uM by Kinomescan method relative to control.
Assay [27] concerns the target Serine/threonine-protein kinase WNK4 (Homo sapiens) (UniProt Q96J92). As to the kind of experiment: Inhibition of wild-type human partial length WNK4 (A31 to D461 residues) expressed in mammalian expression system at 10 uM by Kinomescan method relative to control.

Insulin-like growth factor 1 receptor (Homo sapiens), sequence (P08069 31-736 limits assumed): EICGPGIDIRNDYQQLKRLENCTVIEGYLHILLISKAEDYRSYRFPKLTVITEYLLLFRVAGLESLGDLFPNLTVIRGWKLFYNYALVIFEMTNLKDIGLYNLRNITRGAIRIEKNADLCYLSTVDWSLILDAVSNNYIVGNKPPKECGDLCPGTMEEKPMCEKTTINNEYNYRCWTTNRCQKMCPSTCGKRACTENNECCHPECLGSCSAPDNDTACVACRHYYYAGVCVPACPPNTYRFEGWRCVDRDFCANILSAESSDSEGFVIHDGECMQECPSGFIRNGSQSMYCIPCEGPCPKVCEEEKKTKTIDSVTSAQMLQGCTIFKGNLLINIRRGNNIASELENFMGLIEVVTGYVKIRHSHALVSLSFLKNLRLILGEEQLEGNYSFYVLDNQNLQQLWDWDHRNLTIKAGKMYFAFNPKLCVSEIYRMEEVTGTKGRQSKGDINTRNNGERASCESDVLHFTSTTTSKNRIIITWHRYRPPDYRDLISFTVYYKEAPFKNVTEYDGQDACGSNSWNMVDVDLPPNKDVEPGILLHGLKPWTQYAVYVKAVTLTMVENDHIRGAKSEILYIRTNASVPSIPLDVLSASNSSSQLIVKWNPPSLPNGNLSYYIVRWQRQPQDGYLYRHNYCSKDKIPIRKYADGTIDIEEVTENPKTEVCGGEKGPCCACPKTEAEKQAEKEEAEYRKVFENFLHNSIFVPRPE
Insulin-like growth factor 1 receptor (Homo sapiens), sequence (P08069 741-1367 limits assumed): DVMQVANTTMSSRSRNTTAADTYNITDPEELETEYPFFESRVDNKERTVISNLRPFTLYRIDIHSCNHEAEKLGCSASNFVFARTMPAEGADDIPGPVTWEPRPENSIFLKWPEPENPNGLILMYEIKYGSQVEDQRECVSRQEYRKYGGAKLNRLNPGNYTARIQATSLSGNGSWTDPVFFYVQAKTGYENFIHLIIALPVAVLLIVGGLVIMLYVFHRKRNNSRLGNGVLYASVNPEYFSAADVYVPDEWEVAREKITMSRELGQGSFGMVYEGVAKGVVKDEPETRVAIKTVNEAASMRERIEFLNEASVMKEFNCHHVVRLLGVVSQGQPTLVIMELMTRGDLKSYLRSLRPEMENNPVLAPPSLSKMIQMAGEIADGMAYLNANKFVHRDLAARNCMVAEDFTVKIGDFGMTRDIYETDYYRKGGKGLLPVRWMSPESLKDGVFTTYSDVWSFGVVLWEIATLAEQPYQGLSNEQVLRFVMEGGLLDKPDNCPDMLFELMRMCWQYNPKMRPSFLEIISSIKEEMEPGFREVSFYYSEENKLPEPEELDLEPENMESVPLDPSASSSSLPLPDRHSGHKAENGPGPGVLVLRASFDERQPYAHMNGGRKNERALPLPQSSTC
Tyrosine-protein kinase receptor TYRO3 (Homo sapiens), sequence (Q06418 whole entry, the tested form may be a part): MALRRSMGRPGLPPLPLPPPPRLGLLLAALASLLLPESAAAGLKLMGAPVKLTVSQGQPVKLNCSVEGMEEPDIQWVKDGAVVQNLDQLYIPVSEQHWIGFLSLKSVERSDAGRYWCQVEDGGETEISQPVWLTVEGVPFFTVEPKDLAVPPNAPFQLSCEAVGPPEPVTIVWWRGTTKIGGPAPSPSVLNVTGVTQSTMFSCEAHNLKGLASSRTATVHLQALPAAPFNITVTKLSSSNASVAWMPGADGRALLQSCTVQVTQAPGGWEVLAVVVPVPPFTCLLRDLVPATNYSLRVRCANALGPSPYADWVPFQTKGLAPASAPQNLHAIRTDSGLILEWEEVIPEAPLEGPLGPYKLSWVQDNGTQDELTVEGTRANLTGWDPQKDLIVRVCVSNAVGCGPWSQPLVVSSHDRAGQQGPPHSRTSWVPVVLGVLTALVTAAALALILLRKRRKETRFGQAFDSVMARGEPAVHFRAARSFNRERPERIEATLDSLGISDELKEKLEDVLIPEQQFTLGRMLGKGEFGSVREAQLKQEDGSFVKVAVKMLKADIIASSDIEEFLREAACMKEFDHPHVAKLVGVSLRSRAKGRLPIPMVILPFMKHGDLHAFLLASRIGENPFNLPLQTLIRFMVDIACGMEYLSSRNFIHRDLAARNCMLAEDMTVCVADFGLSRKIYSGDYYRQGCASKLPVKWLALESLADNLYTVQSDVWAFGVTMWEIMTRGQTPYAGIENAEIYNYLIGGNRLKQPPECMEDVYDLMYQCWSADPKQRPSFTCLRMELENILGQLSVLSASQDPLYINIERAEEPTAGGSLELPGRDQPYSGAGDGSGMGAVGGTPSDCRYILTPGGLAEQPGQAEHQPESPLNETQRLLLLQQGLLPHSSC

Turning to `O=C(Nc1cccc([C@@H]2CN(c3ncnc4[nH]ccc34)CCN2CCO)c1)Nc1c(F)cccc1N1CCCC1`, in assay [1], the IC50 (commonly the point on the concentration scale where inhibition reaches its midpoint) stood at 240 nM. Also, the inhibition (commonly the relative decrease from the control value, in per cent) in assay [2] came out at 100%; in assay [3], 95%; in assay [4] it was 100%; in assay [5], 100%; in assay [6], 100%; in assay [7], 74%. Further, the inhibition in [8] stood at 86%; in [9] it was 100%; in assay [10], 92%; in [11], 67%; in [12] it was 95%; in [13] it was 95%. Further, the inhibition in [14] worked out at 33%; in [15], 71%.

As for `O=C(Nc1cccc([C@H]2CCCN(c3ncnc4[nH]ccc34)C2)c1)Nc1ccccc1N1CCCC1`, the inhibition in assay [16] was 100%; in assay [17], 92%; in assay [18], 92%; in assay [19], 14%; in assay [20], 41%; in [21], 9.9%. Further, the inhibition in [22] was determined as 83%; in assay [23], 89%; in [24], 54%; in assay [25], 49%; in [26], 100%; in [27] it was 87%.
